Experimental data as given in patent US10098883B2, “(Aza)pyridopyrazolopyrimidinones and indazolopyrimidinones and their use” (BAYER PHARMA AKTIENGESELLSCHAFT, priority 2013, dated 2018).
Where a name gives a salt, the structure may show the parent alone.

Tested on: clot lysis (fibrinolysis) in human citrated plasma, tPA-induced
Test: Plasma-based clot lysis assay (5%)
Assay type: biochemical
Conditions: diluted human citrated plasma (platelet-poor, 5%), fibrinogen 3 μM, CaCl2 10 mM, tPA 0.2 nM, 37° C., OD 405 nm
Method: B-2. Plasma-based Clot Lysis Assay (5%)
The clot-lysis test system configures the kinetics of clot formation and degradation in vitro and allows quantifying modulation of the process by selected test compounds.
The test compounds were dissolved in 1% acetic acid and further complemented with an equal volume of DMSO. The resulting stock solutions were serially diluted in 0.5% acetic acid/50% DMSO. 1 μL aliquots of these solutions were placed into 384 well microplates (Greiner, black, transparent bottom), followed by 30 μL of diluted human citrated plasma (platelet-poor, final concentration: 5%; supplemented with fibrinogen, final concentration: 3 μM; dilution buffer: 20 mM HEPES, 150 mM NaCl, 0.01% Brij (pH 7)). The reactions were started by addition of […] of CaCl2 (final concentration: 10 mM), and tPA (tissue plasminogen activator, final concentration: 0.2 nM) in dilution buffer, followed by an additional volume of 20 μL dilution buffer for improved mixing. The reactions were incubated at 37° C. Clot formation and degradation was monitored spectrophotometrically by kinetic optical density measurements at 405 nm. IC50 values were determined by comparing the resulting time courses with the time course of a blank control reaction.

IC50 [nM]	IC50 (hydrochloride) [nM]	Structure (SMILES)
18		CC(C)c1cccc2nn3c(C4CCNCC4)cc(=O)[nH]c3c12 [Example 62, 10-Isopropyl-4-(piperidin-4-yl)pyrimido[1,2-b]indazol-2(1H)-one hydrochloride]
46		COc1cccc2nn3c(C4CCNCC4)cc(=O)[nH]c3c12 [Example 8, 10-Methoxy-4-(piperidin-4-yl)pyrimido[1,2-b]indazol-2(1H)-one hydrochloride]
20		Cc1ccc2nn3c(C4CCNCC4)cc(=O)[nH]c3c2c1Cl [Example 69, 10-Chloro-9-methyl-4-(piperidin-4-yl)pyrimido[1,2-b]indazol-2(1H)-one hydrochloride]
	28	O=c1cc(C2CCNCC2)n2nc3cccc(Cl)c3c2[nH]1 [Example 3, 10-Chloro-4-(piperidin-4-yl)pyrimido[1,2-b]indazol-2(1H)-one hydrochloride]
18		Cc1ccccc1-c1cccc2nn3c(C4CCNCC4)cc(=O)[nH]c3c12 [Example 85, 10-(2-Methylphenyl)-4-(piperidin-4-yl)pyrimido[1,2-b]indazol-2(1H)-one hydrochloride]
	34	O=c1cc(C2CCNCC2)n2nc3cccc(Br)c3c2[nH]1 [Example 10, 10-Bromo-4-(piperidin-4-yl)pyrimido[1,2-b]indazol-2(1H)-one hydrochloride]
44		O=c1cc(C2CCNCC2)n2nc3cccc(OC(F)(F)F)c3c2[nH]1 [Example 37, 4-(Piperidin-4-yl)-10-(trifluoromethoxy)pyrimido[1,2-b]indazol-2(1H)-one hydrochloride]
15		Cn1nccc1-c1cccc2nn3c(C4CCNCC4)cc(=O)[nH]c3c12 [Example 86, 10-(1-Methyl-1H-pyrazol-5-yl)-4-(piperidin-4-yl)pyrimido[1,2-b]indazol-2(1H)-one hydrochloride]
24		O=c1cc(C2CCNCC2)n2nc3ccc(F)c(Cl)c3c2[nH]1 [Example 90, 10-Chloro-9-fluoro-4-(piperidin-4-yl)pyrimido[1,2-b]indazol-2(1H)-one hydrochloride]
36		O=c1cc(C2CCNCC2)n2nc3cccnc3c2[nH]1 [Example 9, 7-(Piperidin-4-yl)pyrido[3′,2′:3,4]pyrazolo[1,5-a]pyrimidin-9(10H)-one hydrochloride]
32		O=c1cc(C2CCNCC2)n2nc3cccc(C(F)(F)F)c3c2[nH]1 [Example 12, 4-(Piperidin-4-yl)-10-(trifluoromethyl)pyrimido[1,2-b]indazol-2(1H)-one hydrochloride]
26		O=c1cc(C2CCNCC2)n2nc3cccc(-n4cccn4)c3c2[nH]1 [Example 96, 4-(Piperidin-4-yl)-10-(1H-pyrazol-1-yl)pyrimido[1,2-b]indazol-2(1H)-one hydrochloride]
	14	O=c1cc(C2CCNCC2)n2nc3cccc(Br)c3c2[nH]1 [Example 60, 10-Bromo-4-(piperidin-4-yl)pyrimido[1,2-b]indazol-2(1H)-one hydrochloride]
18		Cc1cccc2nn3c(C4CCNCC4)cc(=O)[nH]c3c12 [Example 36, 10-Methyl-4-(piperidin-4-yl)pyrimido[1,2-b]indazol-2(1H)-one hydrochloride]
26		O=c1cc(C2CCNCC2)n2nc3c(Cl)cccc3c2[nH]1 [Example 22, 7-Chloro-4-(piperidin-4-yl)pyrimido[1,2-b]indazol-2(1H)-one hydrochloride]

Second part, the compound before the results:

Structure (SMILES)	IC50 [nM]	IC50 (hydrochloride) [nM]
O=c1cc(C2CCNCC2)n2nc3cc(Br)ccc3c2[nH]1 [Example 21, 8-Bromo-4-(piperidin-4-yl)pyrimido[1,2-b]indazol-2(1H)-one hydrochloride]	30	
C[C@H]1C[C@H](c2cc(=O)[nH]c3c4c(-c5ccccc5)ccnc4nn23)CCN1 [Example 51, (−)-trans-4-(2-Methylpiperidin-4-yl)-10-phenylpyrido[2′,3′:3,4]pyrazolo[1,5-a]pyrimidin-2(1H)-one hydrochloride]	15	
O=c1cc(C2CCNCC2)n2nc3cc(C(F)(F)F)cc(Cl)c3c2[nH]1 [Example 41, 10-Chloro-4-(piperidin-4-yl)-8-(trifluoromethyl)pyrimido[1,2-b]indazol-2(1H)-one hydrochloride]	23	
Cc1cc(Br)c2c(c1)nn1c(C3CCNCC3)cc(=O)[nH]c21 [Example 89, 10-Bromo-8-methyl-4-(piperidin-4-yl)pyrimido[1,2-b]indazol-2(1H)-one hydrochloride]	36	
O=c1cc(C2CCNCC2)n2nc3cc(F)cc(F)c3c2[nH]1 [Example 23, 8,10-Difluoro-4-(piperidin-4-yl)pyrimido[1,2-b]indazol-2(1H)-one hydrochloride]	28	
Cc1nnc2nn3c(C4CCNCC4)cc(=O)[nH]c3c2c1C [Example 17, 3,4-Dimethyl-8-(piperidin-4-yl)pyrimido[1′,2′:1,5]pyrazolo[3,4-c]pyridazin-6(5H)-one hydrochloride]	22	
Cc1cc(C(F)(F)F)nc2nn3c(C4CCNCC4)cc(=O)[nH]c3c12 [Example 14, 10-Methyl-4-(piperidin-4-yl)-8-(trifluoromethyl)pyrido[2′,3′:3,4]pyrazolo[1,5-a]pyrimidin-2(1H)-one hydrochloride]	50	
O=c1cc(C2CCNCC2)n2nc3cccc(-c4ccccc4F)c3c2[nH]1 [Example 57, 10-(2-Fluorophenyl)-4-(piperidin-4-yl)pyrimido[1,2-b]indazol-2(1H)-one hydrochloride]		13
O=c1cc(C2CCNCC2)n2nc3cccc(-c4ccc(C(F)(F)F)cc4)c3c2[nH]1 [Example 55, 4-(Piperidin-4-yl)-10-[4-(trifluoromethyl)phenyl]pyrimido[1,2-b]indazol-2(1H)-one hydrochloride]	14	
C[C@H]1C[C@H](c2cc(=O)[nH]c3c4c(Cl)cccc4nn23)CCN1 [Example 68, (−)-trans-10-Chloro-4-(2-methylpiperidin-4-yl)pyrimido[1,2-b]indazol-2(1H)-one hydrochloride]		25
Cc1ccc2c(n1)nn1c(C3CCNCC3)cc(=O)[nH]c21 [Example 24, 8-Methyl-4-(piperidin-4-yl)pyrido[2′,3′:3,4]pyrazolo[1,5-a]pyrimidin-2(1H)-one hydrochloride]	34	
O=c1cc(C2CCNCC2)n2nc3ccc(C(F)(F)F)cc3c2[nH]1 [Example 2, 4-(Piperidin-4-yl)-9-(trifluoromethyl)pyrimido[1,2-b]indazol-2(1H)-one hydrochloride]	30	
CCOc1ccccc1-c1cccc2nn3c(C4CCNCC4)cc(=O)[nH]c3c12 [Example 93, 10-(2-Ethoxyphenyl)-4-(piperidin-4-yl)pyrimido[1,2-b]indazol-2(1H)-one hydrochloride]	28	
O=c1cc(C2CCNCC2)n2nc3cc(C(F)(F)F)ccc3c2[nH]1 [Example 11, 4-(Piperidin-4-yl)-8-(trifluoromethyl)pyrimido[1,2-b]indazol-2(1H)-one hydrochloride]	26	
O=c1cc(C2CCNCC2)n2nc3c(Br)cncc3c2[nH]1 [Example 27, 7-Bromo-4-(piperidin-4-yl)pyrido[4′,3′:3,4]pyrazolo[1,5-a]pyrimidin-2(1H)-one hydrochloride]	13	
O=c1cc(C2CCNCC2)n2nc3cccc(-c4c(F)cccc4F)c3c2[nH]1 [Example 78, 10-(2,6-Difluorophenyl)-4-(piperidin-4-yl)pyrimido[1,2-b]indazol-2(1H)-one hydrochloride]	15	
O=c1cc(C2CCNCC2)n2nc3c(C(F)(F)F)cccc3c2[nH]1 [Example 30, 4-(Piperidin-4-yl)-7-(trifluoromethyl)pyrimido[1,2-b]indazol-2(1H)-one hydrochloride]	46	
O=c1cc(C2CCNCC2)n2nc3cccc(-n4nccn4)c3c2[nH]1 [Example 98, 4-(Piperidin-4-yl)-10-(2H-1,2,3-triazol-2-yl)pyrimido[1,2-b]indazol-2(1H)-one hydrochloride]	27	
O=c1cc(C2CCNCC2)n2nc3cccc(-c4ccc[nH]4)c3c2[nH]1 [Example 104, 4-(piperidin-4-yl)-10-(1H-pyrrol-2-yl)pyrimido[1,2-b]indazol-2(1H)-one hydrochloride]	35	
O=c1cc(C2CCNCC2)n2nc3ccc(Cl)cc3c2[nH]1 [Example 5, 9-Chloro-4-(piperidin-4-yl)pyrimido[1,2-b]indazol-2(1H)-one hydrochloride]	37	
CC(C)Oc1ccccc1-c1cccc2nn3c(C4CCNCC4)cc(=O)[nH]c3c12 [Example 94, 10-(2-Isopropoxyphenyl)-4-(piperidin-4-yl)pyrimido[1,2-b]indazol-2(1H)-one hydrochloride]	35	
O=c1cc(C2CCNCC2)n2nc3cccc(-c4ccccc4C(F)(F)F)c3c2[nH]1 [Example 67, 4-(Piperidin-4-yl)-10-[2-(trifluoromethyl)phenyl]pyrimido[1,2-b]indazol-2(1H)-one hydrochloride]	13	
Nc1ccc2c(c1)nn1c(C3CCNCC3)cc(=O)[nH]c21 [Example 16, 8-Amino-4-(piperidin-4-yl)pyrimido[1,2-b]indazol-2(1H)-one hydrochloride]	34	
